We go through 2 compounds from patent EP3495372B1 (priority 2017, dated 2019).

For orientation: viability means a per cent measure of how many cells are alive, often set against a control. As a reminder, the MIC is the smallest concentration in the dilution series that meets the test's criterion for growth inhibition. Lower therefore signals greater potency.

In data set [1] the test system is differentiated SH-SY5Y human neuroblastoma cells. Briefly: MTT assay, neuroprotective effects against Aβ1-42 cytotoxicity. The conditions noted are these: 24 h, read-out: increase in the cell viability (MTT assay). It is filed as cell-based. How it is done: Cell cultures and differentiation: SH-SY5Y cell line were growth in DMEM:F12 (1:1) media including 10% FBS and 1% penicillin/streptomycin at 37 °C and 5% CO2 until cells reach confluence. Then, cells harvested via using trypsin/EDTA solution and transferred to 48 well plates. For differentiation, media were changed to supplemented media with 10 µg/mL retinoic acid and incubated for 5 days. Finally, media were changed into serum free media supplementing with both 10 µM retinoic acid and 25 ng/mL BDNF. Differentiated cells were determined under invert microscope and the cells were used within 10 days (Encinas M, Iglesias M, Liu Y, Wang H, Muhaisen A, Ceña V, Gallego C, Comella JX. Sequential treatment of SH-SY5Y cells with retinoic acid and brain-derived neurotrophic factor gives rise to fully differentiated, neurotrophic factor-dependent, human neuron-like cells. J. Neurochem. 2002; 75:991-1003 e Cheung YT, Lau WKW, Yu MS, Lai CSW, Yeung SC, So KF, Chang RCC. Effects of all-trans-retinoic acid on human SH-SY5Y neuroblastoma as in vitro model in neurotoxicity research. Neurotoxicol. 2009; 30:127-135).
(§1) Control cells (n = 6) were cultured under normal conditions. 1% Triton X, ascorbic acid (10 µM) and hydrogen peroxide (H2O2, 25 µM) were used as positive controls for cell viability, TAC and TOS analysis, respectively.
The cultures without BLA, MEM, or LA were studied as negative control group. 1% Triton-X was added to the culture media to provide negative control group. MTT reduction and LDH release observed after 24 h of Aβ1-42-exposure at 20 µM.
On the technique in general: Tetrazolium dyes change colour on reduction, which living cells bring about.

The test system is the same in data set [2]. Briefly: LDH assay, neuroprotective effects against Aβ1-42 cytotoxicity. The conditions noted are these: with 20 µM Aβ1-42, 24 h. The class given is cell-based. How it is done:
Cell cultures and differentiation: SH-SY5Y cell line were growth in DMEM:F12 (1:1) media including 10% FBS and 1% penicillin/streptomycin at 37 °C and 5% CO2 until cells reach confluence. Then, cells harvested via using trypsin/EDTA solution and transferred to 48 well plates. For differentiation, media were changed to supplemented media with 10 µg/mL retinoic acid and incubated for 5 days. Finally, media were changed into serum free media supplementing with both 10 µM retinoic acid and 25 ng/mL BDNF.
(§2) Cytotechnol. 2015; 67:299-309.
as §1
The cultures without BLA, MEM, or LA were studied as negative control group. 1% Triton-X was added to the culture media to provide negative control group.

Data set [3] relates to differentiated SH-SY5Y cells. Briefly: TAC and TOS analysis in cellular model of Alzheimer's disease. It is filed as cell-based, human. The conditions noted are these: co-treatment with Aβ1-42. How it is done:
TAC and TOS analysis: the automated TAC and TOS assays were carried out by commercially available kits (Rel Assay^(R) Diagnostics, Gaziantep, Turkey) on samples from the cultures.
as §1
Figure 5 and 6 show the effects of BLA and MEM treatments on TAC and TOS levels in cellular model of Alzheimer's disease, respectively.

Data set [4] has as its system Escherichia coli ATCC 25922. Briefly: Antimicrobial activity. The conditions noted are these: ATCC25922, E. coli ATCC 25922. It is filed as cell-based.
Data set [5] concerns SHSY-5Y human neuroblastoma cell line. Briefly: Antitumor activity, MTT and LDH assays. The class given is cell-based. The conditions noted are these: dose-dependent. How it is done:
as §2
Antitumor activity of BLA and MEM was tested on SHSY-5Y human neuroblastoma cell line using MTT and LDH assays. Cells were grown to near-confluency before treatment. Growth of the cell line was inhibited by both drug application in a dose-dependent manner.

In data set [6] the test system is Pseudomonas aeruginosa ATCC 27853. Briefly: Antimicrobial activity. The class given is cell-based. The conditions noted are these: ATCC27853, P. aeruginosa ATCC 27853.
Data set [7] has as its system Enterococcus faecalis ATCC 29212. Briefly: Antimicrobial activity. The class given is cell-based. The conditions noted are these: ATCC29212, E. faecalis ATCC 29212.
Data set [8] concerns the target T1, acetylcholinesterase (AChE) (Homo sapiens, UniProt P22303).
T1 construct: endogenous in cells
Briefly: AChE activity in cellular model of Alzheimer's disease. It is filed as cell-based. The conditions noted are these: with 20 µM Aβ1-42, 24 h. The protocol: Determination of AChE activity: the activity of AChE within the cellular Alzheimer Disease's model was measured by the Acetylcholinesterase Assay Kit (Colorimetric) from Abcam^(R) (Cambridge, MA, USA) according to the manufacturer's recommended protocol.
AChE activity was evaluated in differentiated SH-SY5Y cells treated with BLA, LA, MEM (25 and 50 µM) or media alone for 24 h.

In data set [9] the test system is Staphylococcus aureus ATCC 25923. Briefly: Antimicrobial activity. The class given is cell-based. The conditions noted are these: ATCC25923, S. aureus ATCC 25923.
In data set [10] the test system is peripheral human whole blood (PHWB) cells. Briefly: Cytotoxicity assay (MTT and LDH) on blood cells. The conditions noted are these: 0.1 to 100 µM, 24 h, MTT and LDH assays.
Procedure: LDH assay: For LDH assay application, LDH cytotoxicity assay kit (Cayman Chemical Company®, Ann Arbor, MI, USA) was used according to the manufacturer's recommendations. The cells were transferred to 48-well plates and different concentrations of drugs were applied for 24 h. After that, 100 µL supernatant and 100 µL of reaction mixture were transferred to a fresh 48-well plate and incubated for 30 min at room temperature. Finally, the absorbance of the cultures was analyzed at 490 nm using a microplate reader as reported by Turkez H. Togar B, Di Stefano A, Taspinar N, Sozio P. Protective effects of cyclosativene on H2O2-induced injury in cultered rat primary cerebral cortx cells. […]
MTT assay: according to the manufacturer's instructions (Cayman Chemical Company®, Ann Arbor, MI, USA), 3-(4,5-Dimethylthiazol-2-yl)-2,5-diphenyltetrazolium bromide (MTT) solution was applied to cell cultures. As summary, MTT was added and incubated in the cell cultures for 3 h and after incubation dimethyl sulfoxide (DMSO) was used to solve formazan crystals, and a plate reader was used to analyse cultures at 570 nm wavelength (Togar B, Turkez H, Hacimuftuoglu A, Tatar A, Geyikoglu F. Guaiazulene biochemical activity and cytotoxic and genotoxic effects on rat neuron and N2a neuroblastom cells. J. Intercult. Ethnopharmacol. 2015; 4:29-33). […]
Data set [11] concerns Candida albicans ATCC 90028. Briefly: Antimicrobial activity. It is filed as cell-based. The conditions noted are these: ATCC90028, C. albicans ATCC 90028.

The structures appear in SMILES notation. In brackets after ≈: the same amount, converted by molar mass.

T1 sequence (P22303 32-614): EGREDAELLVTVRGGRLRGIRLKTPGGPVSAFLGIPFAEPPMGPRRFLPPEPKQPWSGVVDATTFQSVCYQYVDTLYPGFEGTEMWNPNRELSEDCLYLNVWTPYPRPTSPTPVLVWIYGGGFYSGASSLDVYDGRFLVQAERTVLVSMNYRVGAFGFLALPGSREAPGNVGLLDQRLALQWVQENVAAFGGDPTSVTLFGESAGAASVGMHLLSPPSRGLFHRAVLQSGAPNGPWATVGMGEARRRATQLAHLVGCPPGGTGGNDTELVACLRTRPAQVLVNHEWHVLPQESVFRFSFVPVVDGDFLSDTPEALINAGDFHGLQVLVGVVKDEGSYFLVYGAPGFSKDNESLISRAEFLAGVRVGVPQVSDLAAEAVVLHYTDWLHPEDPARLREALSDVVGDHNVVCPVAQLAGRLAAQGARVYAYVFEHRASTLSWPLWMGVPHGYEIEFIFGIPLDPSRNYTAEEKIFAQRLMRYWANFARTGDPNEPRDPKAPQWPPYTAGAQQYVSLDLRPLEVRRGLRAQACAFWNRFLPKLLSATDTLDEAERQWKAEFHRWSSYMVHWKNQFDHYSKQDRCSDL

For `O=C(O)CCCCC1CCSS1` (centres unmarked) [LA, 1,2-dithiolane-3-pentanoic acid], the viability at 25 µM in [1] was 14.8%. Also, in data set [1], the viability at 50 µM amounted to 19%. In data set [1], the viability at 100 µM came to 20.7%. Further, the figures for the “increase in the cell viability (inhibited LDH release)” value in data set [2] (25 µM), in [2] (50 µM) and in data set [2] (100 µM) were 53.05%, 58.68% and 59.86%, respectively. Moreover, in data set [3], the “Aβ1-42-induced decreases of TAC and increases of TOS levels” value was “modulated”.

Take `CC1(C)C2CC3OB(CNC(=O)CCCC[C@H]4CCSS4)O[C@]3(C)C1C2` (stereo partly drawn) [BLA, 5-((S)-1,2-dithiolan-3-yl)-N-(((3aR)-3a,5,5-trimethylhexahydro-4,6-methanobenzo[d][1,3,2]dioxaborol-2-yl)methyl)pentanamide]: the MIC in data set [4] came to 128 µg/mL (≈ 322 µM); in [6], 256 µg/mL (≈ 644 µM); in data set [7] it was 256 µg/mL (≈ 644 µM); in data set [9] it was 256 µg/mL (≈ 644 µM); in data set [11], 128 µg/mL (≈ 322 µM). Further, the viability at 25 µM in [1] came out at 25.1%. Also, the viability at 50 µM in [1] came to 29.9%. Moreover, the viability at 100 µM in data set [1] worked out at 32.9%. Moreover, the “increase in the cell viability (inhibited LDH release)” value is reported as 62.91% in data set [2] (25 µM), 67.37% in [2] (50 µM) and 70.65% in [2] (100 µM). For the same compound, the “antitumor effects (growth inhibition)” value in data set [5] is “moderate antitumor effects”. The “Aβ1-42-induced decreases of TAC and increases of TOS levels” value in [3] is “modulated”. For the same compound, the “reduced Aβ-induced AChE activity” value was determined as 18.77% in [8] (25 µM) and 22.96% in data set [8] (50 µM). In addition, in [10], the “changes in cell viability” value was “did not show any significant changes in cell viability”.
